Source: ChEMBL document CHEMBL1821601, “Impact of passive permeability and gut efflux transport on the oral bioavailability of novel series of piperidine-based renin inhibitors in rodents” (Bioorg Med Chem Lett, 2011)
One block for each molecule: values may come before it.

Tests used:
[1] = (§1) Oral bioavailability in rat at 3 mg/kg; type: ADME, organism-based; settings: in vivo
[2] = Lipophilicity, Log D of the compound at pH 7 by RP-HPLC analysis; type: physicochemical; settings: buffer
[3] = Apparent Passive permeability across pig LLC-PK1 cells; type: ADME, cell-based, Sus scrofa
rat Mdr1a = assay: Apparent permeability across pig LLC-PK1 cells transfected with rat Mdr1a; type: ADME, cell-based, Sus scrofa
[4] = Oral bioavailability in rat at 3 mg/kg pre-dosed with 50 mg/kg, po of Pgp and Bcrp inhibitor elacridar 15 mins before drug challenge; type: ADME, organism-based; settings: in vivo
[5] = as §1; type: ADME, organism-based; settings: in vivo; remark: listed apart in the source
LLC-PK1 = assay: Ratio of permeability from basolateral to apical side to apical to basolateral side of pig LLC-PK1 cells transfected with rat Mdr1a; type: ADME, cell-based, Sus scrofa
[6] = Oral bioavailability in rat at 0.3 mg/kg pre-dosed with 50 mg/kg, po of Pgp and Bcrp inhibitor elacridar 15 mins before drug challenge; type: ADME, organism-based; settings: in vivo
[7] = Oral bioavailability in rat at 0.3 mg/kg; type: ADME, organism-based; settings: in vivo
[8] = Plasma clearance in rat at 30 mg/kg, po and 5 mg/kg, iv; type: ADME, organism-based
[9] = Plasma clearance in dog at 3 mg/kg, po and 1 mg/kg, iv; type: ADME, organism-based, Canis lupus familiaris
[10] = (§2) Oral bioavailability in rat at 30 mg/kg; type: ADME, organism-based; settings: in vivo
[11] = Oral bioavailability in dog at 3 mg/kg; type: ADME, organism-based, Canis lupus familiaris; settings: in vivo
[12] = Cmax in rat plasma at 3 mg/kg, po; type: ADME, organism-based; set-up: dose 3 mg/kg, route oral
[13] = as §2; type: ADME, organism-based; settings: in vivo; remark: listed apart in the source
[14] = Oral bioavailability in rat at 10 mg/kg; type: ADME, organism-based; settings: in vivo
[15] = Plasma clearance in rat at 0.5 mg/kg, iv; type: ADME, organism-based; set-up: dose 0.5 mg/kg, route intravenous
[16] = AUC (0 to 24 hrs) in rat at 3 mg/kg, po pre-dosed with 50 mg/kg, po of Pgp and Bcrp inhibitor elacridar 15 mins before drug challenge; type: ADME, organism-based; set-up: dose 3 mg/kg, time < 24 hr, route oral; settings: plasma
[17] = Plasma clearance in rat at 5 mg/kg, iv; type: ADME, organism-based; set-up: dose 5 mg/kg, route intravenous
[18] = AUC (0 to 24 hrs) in FVB mouse expressing wild type MDR1a at 30 mg/kg, po; type: ADME, organism-based; set-up: time < 24 hr, dose 30 mg/kg, route oral; settings: plasma
[19] = Drug uptake in FVB mouse expressing wild type MDR1a brain at 30 mg/kg, po after 24 hrs; type: ADME, organism-based; set-up: dose 30 mg/kg, route oral; settings: read-out: Drug uptake
[20] = Drug uptake in FVB mouse expressing wild type MDR1a brain at 5 mg/kg, iv after 24 hrs; type: ADME, organism-based; set-up: dose 5 mg/kg, route intravenous; settings: read-out: Drug uptake
[21] = Oral bioavailability in FVB mouse expressing wild type MDR1a at 30 mg/kg; type: ADME, organism-based; settings: in vivo
[22] = Blood clearance in FVB mouse expressing wild type MDR1a at 30 mg/kg, po and 5 mg/kg, iv; type: ADME, organism-based; settings: whole blood
Mus musculus [23] = assay: Volume of distribution at steady state in FVB mouse expressing wild type MDR1a at 30 mg/kg, po and 5 mg/kg, iv; type: ADME, organism-based; settings: in vivo
[24] = AUC (0 to 24 hrs) in MDR1a-deficient FVB mouse at 30 mg/kg, po; type: ADME, organism-based; set-up: time < 24 hr, dose 30 mg/kg, route oral; settings: plasma
[25] = Drug uptake in MDR1a-deficient FVB mouse brain at 30 mg/kg, po after 24 hrs; type: ADME, organism-based; set-up: dose 30 mg/kg, route oral; settings: read-out: Drug uptake
[26] = Drug uptake in MDR1a-deficient FVB mouse brain at 5 mg/kg, iv after 24 hrs; type: ADME, organism-based; set-up: dose 5 mg/kg, route intravenous; settings: read-out: Drug uptake
[27] = Oral bioavailability in MDR1a-deficient FVB mouse at 30 mg/kg; type: ADME, organism-based; settings: in vivo
[28] = Blood clearance in MDR1a-deficient FVB mouse at 30 mg/kg, po and 5 mg/kg, iv; type: ADME, organism-based; settings: whole blood
Mus musculus [29] = assay: Volume of distribution at steady state in MDR1a-deficient FVB mouse at 30 mg/kg, po and 5 mg/kg, iv; type: ADME, organism-based; settings: in vivo
Mus musculus [30] = assay: Ratio of AUC (0 to 24 hrs) in MDR1a-deficient FVB mouse to AUC (0 to 24 hrs) in FVB mouse expressing wild type MDR1a at 30 mg/kg, po; type: ADME, organism-based; set-up: dose 30 mg/kg, route oral; settings: in vivo
Brain [31] = assay: Ratio of drug uptake in MDR1a-deficient FVB mouse brain to drug uptake in FVB mouse expressing wild type MDR1a brain at 30 mg/kg, po after 24 hrs; type: ADME, organism-based; set-up: dose 30 mg/kg, route oral; settings: in vivo
Brain [32] = assay: Ratio of drug uptake in MDR1a-deficient FVB mouse brain to drug uptake in FVB mouse expressing wild type MDR1a brain at 5 mg/kg, iv after 24 hrs; type: ADME, organism-based; set-up: dose 5 mg/kg, route intravenous; settings: in vivo
Mus musculus [33] = assay: Ratio of oral bioavailability in MDR1a-deficient FVB mouse to oral bioavailability in FVB mouse expressing wild type MDR1a at 30 mg/kg; type: ADME, organism-based; settings: in vivo
Mus musculus [34] = assay: Ratio of blood clearance in MDR1a-deficient FVB mouse to blood clearance in FVB mouse expressing wild type MDR1a at 30 mg/kg, po and 5 mg/kg, iv; type: ADME, organism-based; settings: in vivo
Mus musculus [35] = assay: Ratio of volume of distribution at steady state in MDR1a-deficient FVB mouse to volume of distribution at steady state in FVB mouse expressing wild type MDR1a at 30 mg/kg, po and 5 mg/kg, iv; type: ADME, organism-based; settings: in vivo
[36] = Drug recovery in permanently bile-duct cannulated rat bile supplimented with artificial bile at 20 mg/kg, po after 48 hrs by HPLC-MS/MS analysis; type: ADME, organism-based; set-up: dose 20 mg/kg, route oral; settings: read-out: Drug uptake
[37] = Drug recovery in permanently bile-duct cannulated rat urine supplimented with artificial bile at 20 mg/kg, po after 48 hrs by HPLC-MS/MS analysis; type: ADME, organism-based; set-up: dose 20 mg/kg, route oral; settings: read-out: Drug uptake
[38] = Drug recovery in permanently bile-duct cannulated rat feces supplimented with artificial bile at 20 mg/kg, po after 48 hrs by HPLC-MS/MS analysis; type: ADME, organism-based; set-up: dose 20 mg/kg, route oral; settings: faeces, read-out: Drug uptake
[39] = Drug recovery in permanently bile-duct cannulated rat bile supplimented with artificial bile at 5 mg/kg, iv after 48 hrs by HPLC-MS/MS analysis; type: ADME, organism-based; set-up: dose 5 mg/kg, route intravenous; settings: read-out: Drug uptake
[40] = Drug recovery in permanently bile-duct cannulated rat urine supplimented with artificial bile at 5 mg/kg, iv after 48 hrs by HPLC-MS/MS analysis; type: ADME, organism-based; set-up: dose 5 mg/kg, route intravenous; settings: read-out: Drug uptake
[41] = Drug recovery in permanently bile-duct cannulated rat feces supplimented with artificial bile at 5 mg/kg, iv after 48 hrs by HPLC-MS/MS analysis; type: ADME, organism-based; set-up: dose 5 mg/kg, route intravenous; settings: faeces, read-out: Drug uptake
[42] = Drug recovery in permanently bile-duct cannulated rat supplimented with artificial bile at 20 mg/kg, po after 48 hrs by HPLC-MS/MS analysis; type: ADME, organism-based; set-up: dose 20 mg/kg, route oral; settings: in vivo, read-out: Drug uptake
[43] = Drug recovery in permanently bile-duct cannulated rat supplimented with artificial bile at 5 mg/kg, iv after 48 hrs by HPLC-MS/MS analysis; type: ADME, organism-based; set-up: dose 5 mg/kg, route intravenous; settings: in vivo, read-out: Drug uptake

SMILES: COCCCc1cc(CN(C(=O)[C@H]2CNCC[C@@H]2c2ccc(OCCOc3c(Cl)cc(C)cc3Cl)cc2)C2CC2)cc(OCCOC)c1.Cl
clearance [8]: 11 mL/min/kg
clearance [9]: 26 mL/min/kg
bioavailability [10]: 27%
bioavailability [11]: 44%

SMILES: COc1cc2c(cc1OC)CN(CCc1ccc(NC(=O)c3cccc4c(=O)c5cccc(OC)c5[nH]c34)cc1)CC2 [ELACRIDAR]
Cmax [12]: 200 nM

SMILES: COCCCc1cc(Cl)c(Cl)c(CN(C(=O)[C@H]2CNCC[C@@H]2c2ccn(C)c(=O)c2)C2CC2)c1
bioavailability [13]: 24%
bioavailability [1]: 2%
bioavailability [14]: 21%
clearance [15]: 57 mL/min/kg
Papp (rat Mdr1a): 3 ×10⁻⁶ cm/s
bioavailability [4]: 20%
AUC(0-t) at 24 h [16]: 0.033 µM·h
bioavailability [5]: 2%
clearance [17]: 67 mL/min/kg

SMILES: COCCCc1cc(CN(C(=O)[C@H]2CNCC[C@@H]2c2ccn(C)c(=O)c2)C2CC2)cc(Br)c1C
bioavailability [13]: 17%
bioavailability [1]: 6%
bioavailability [14]: 7%
clearance [15]: 125 mL/min/kg
Papp (rat Mdr1a): 2 ×10⁻⁶ cm/s
AUC(0-t) at 24 h [18]: 0.8 µM·h
concentration at 24 h [19]: 8 nM
concentration at 24 h [20]: 7.3 nM
bioavailability [21]: 7%
clearance [22]: 82 mL/min/kg
Vdss (Mus musculus [23]): 3.7 L/kg
AUC(0-t) at 24 h [24]: 4 µM·h
concentration at 24 h [25]: 504 nM
concentration at 24 h [26]: 239 nM
bioavailability [27]: 29%
clearance [28]: 72 mL/min/kg
Vdss (Mus musculus [29]): 4.7 L/kg
fold change (FC) (Mus musculus [30]): 5
fold change (FC) (Brain [31]): 63
fold change (FC) (Brain [32]): 32
fold change (FC) (Mus musculus [33]): 4
fold change (FC) (Mus musculus [34]): 0.9
fold change (FC) (Mus musculus [35]): 1.3
bioavailability [4]: 31%
AUC(0-t) at 24 h [16]: 0.044 µM·h
bioavailability [5]: 3%
clearance [17]: 75 mL/min/kg

SMILES: COCCCc1cc(CN(C(=O)[C@H]2CNCC[C@@H]2c2ccn(C)c(=O)c2)C2CC2)cc(OCCOC)c1.Cl
bioavailability [13]: 3%
clearance [8]: 31 mL/min/kg
clearance [9]: 9.2 mL/min/kg
bioavailability [10]: 3%
bioavailability [11]: 1%
dose excreted at 48 h [36]: 0.1%
dose excreted at 48 h [37]: 2%
dose excreted at 48 h [38]: 73%
dose excreted at 48 h [39]: 25%
dose excreted at 48 h [40]: 10%
dose excreted at 48 h [41]: 10%
dose excreted at 48 h [42]: 75%
dose excreted at 48 h [43]: 45%
bioavailability [1]: 0.5%
clearance [15]: 43 mL/min/kg
Papp (rat Mdr1a): < 3 ×10⁻⁶ cm/s
logD [2]: 0.9
Papp [3]: 2 ×10⁻⁶ cm/s
clearance [17]: 31 mL/min/kg

The remaining lines, values ahead:

bioavailability [1]: 1%
logD [2]: 1
Papp [3]: 1 ×10⁻⁶ cm/s
SMILES: COCCc1ccc(Cl)c(CN(C(=O)[C@H]2CNCC[C@@H]2c2ccn(C)c(=O)c2)C2CC2)c1

bioavailability [1]: 29%
Papp (rat Mdr1a): 22 ×10⁻⁶ cm/s
bioavailability [4]: 24%
bioavailability [5]: 29%
Ratio (LLC-PK1): 19
bioavailability [6]: 14%
bioavailability [7]: 17%
logD [2]: 2.6
Papp [3]: 22 ×10⁻⁶ cm/s
SMILES: COCCOc1cc(CCOC)cc(CN(C(=O)[C@H]2CNCC[C@]2(O)c2ccc(F)c(F)c2)C2CC2)c1

bioavailability [1]: 16%
logD [2]: 3.1
Papp [3]: 11 ×10⁻⁶ cm/s
SMILES: COCCc1ccc(Cl)c(CN(C(=O)[C@H]2CNCC[C@]2(O)c2ccc(F)c(F)c2)C2CC2)c1
